Experimental findings from publication PMC9562341, “AI protein structure prediction-based modeling and mutagenesis of a protostome receptor and peptide ligands reveal key residues for their interaction” (The Journal of Biological Chemistry, 2022) are described below.

Experiment [1] addresses T1, ALKR (Aplysia leucokinin-like peptide receptor) (Aplysia californica, UniProt A0A977Q7Q2).
T1 sequence (A0A977Q7Q2 1-429): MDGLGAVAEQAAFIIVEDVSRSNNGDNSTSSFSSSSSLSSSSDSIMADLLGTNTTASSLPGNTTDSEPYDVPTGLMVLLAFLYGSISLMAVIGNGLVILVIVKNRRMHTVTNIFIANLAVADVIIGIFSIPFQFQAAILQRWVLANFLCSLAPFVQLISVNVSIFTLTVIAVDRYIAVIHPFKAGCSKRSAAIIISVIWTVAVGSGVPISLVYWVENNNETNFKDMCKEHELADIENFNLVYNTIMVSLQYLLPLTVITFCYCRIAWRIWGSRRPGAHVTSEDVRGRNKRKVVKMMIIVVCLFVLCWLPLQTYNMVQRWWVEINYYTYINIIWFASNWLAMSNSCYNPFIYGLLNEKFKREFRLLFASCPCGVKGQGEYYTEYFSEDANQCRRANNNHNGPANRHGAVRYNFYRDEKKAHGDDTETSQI
The experiment in a line: IP1 accumulation assay, CHO-K1 cells transfected with ALKR. It counts as cell-based. Particulars: for EC50: CHO-K1 transiently transfected with ALKR, no promiscuous Gαq, ALK1 n = 13, ALK2 n = 4, others n = 3; for Activation of ALKR (in words): IP1 accumulation in CHO-K1 transfected with ALKR; for Active (√ active / × not active): ALKR, tick or cross in column Active (EC50). The text has this: To examine whether the native ALKs could activate the putative ALKR, we expressed the ALKR in Chinese hamster ovary K1 (CHO-K1) cells and examined ALK-mediated changes in the concentration of inositol monophosphate (IP1), a degradation product of the second messenger (inositol trisphosphate) in the Gq signaling pathway upon ligand-induced activation ([88]) (Figs. 4 and S5). […] All endogenous ALK peptides could activate ALKR in a dose-dependent manner (Fig. 4, A–C). […] The lowest EC50 values were for ALK8 (EC50 = 10 nM) and ALK9 (EC50 = 10 nM). The EC50 values for ALK1, ALK2, ALK3, ALK4, ALK5, ALK10, ALK13 were slightly higher than that of ALK9, but there was no statistically significant difference between them (Table S5).
(§1) IP1 accumulation assay measures concentration of IP1 ([88]), that is hydrolyzed from the second messenger, inositol trisphosphate, generated by Gαq pathway when GPCR expressed in CHO-K1 cells is activated by an appropriate ligand. We note two reasons that we selected mammalian CHO-K1 cells for assays for ligand-receptor (GPCR) activity: (1) there are no established molluscan cell lines available; (2) CHO-K1 cells have been extensively utilized not only for vertebrate GPCRs (e.g., ([97])) but also for invertebrate/protostome GPCRs, including other molluscs ([9], [11], [73]), annelids ([8]), jellyfish ([98]), Caenorrhabditis elegans ([99]), and arthropods ([76], [78], [79], [80]). Given that LKRs are only present in protostomes ([6], [7], [66], [67]), an additional advantage of using mammalian cells to assay ligand-receptor activity is that the effects of a possible native LKR in protostome cell lines could be excluded.
(§2) In order to express the Aplysia putative receptor transiently in CHO-K1, the cDNA was cloned into the mammalian expression vector pcDNA3.1(+). […] Transfection experiments were performed when the cells were grown to 70 to 90% confluence. For the ALKR, in each dish (60-mm diameter), 4 μg of the putative receptor plasmids [in pcDNA3.1(+)] were mixed with 400 μl of Opti-MEM (Gibco, 11058021), followed by the addition of 15 μl of Turbofect (Thermo Fisher Scientific, R0531). […] Thus, 3 μg of the putative receptor plasmids [in pcDNA3.1(+)] and 3 μg of promiscuous Gαq protein ([89]) [in pcDNA3.1(+)] were cotransfected in the above procedure for the Anopheles LKR ([8], [10]). The CHO-K1 cells with the reagents added above were mixed gently and incubated at room temperature for 15 min. The DNA/Turbofect mixture dropwise was then added to the dish, and the cells were incubated at 37 °C in 5% CO2 overnight. The next day, the cells were trypsinized and reseeded in opaque white 96-well half-area (Corning, 3688) or 384-well tissue culture–treated plates (Corning, 3570) at a density of 20,000 cells/well in F-12K and 10% FBS and incubated at 37 °C in 5% CO2 overnight. On the third day, the activation of the receptors was detected by monitoring IP1 accumulation using IP1 detection kit (Cisbio, 62IPAPEB) with a Tecan Spark plate reader. Except for using 0.5 × reagents for the anti-IP1-cryptate and IP1-d2 reagents, all other procedures were performed in accordance with the IP1 detection kit manufacturer’s instructions.

The target in experiment [2] is Aplysia leucokinin-like peptide receptor (Aplysia californica).
For experiment [3], the target named is ALKR N314A (Aplysia californica).
In experiment [4] the target is ALKR Q250A & Q311A (Aplysia californica).
The target of experiment [5] is ALKR Q133A (Aplysia californica).
In experiment [6] the target is ALKR Y213A (Aplysia californica).
The target of experiment [7] is ALKR Q317A (Aplysia californica).
For experiment [8], the target named is ALKR I329Q (Aplysia californica).
The target in experiment [9] is ALKR L157Q & I329Q (Aplysia californica).
The target in experiment [10] is ALKR Q133A & Y213A & Q317A (Aplysia californica).
Experiment [11] addresses ALKR L157Q (Aplysia californica).
Experiment [12] deals with Aplysia leucokinin-like peptide receptor (Aplysia californica). This is another data set of the same source.
In another experiment the target is T2, Anopheles LKR (Anopheles stephensi, UniProt Q694V6).
T2 sequence (Q694V6 1-573): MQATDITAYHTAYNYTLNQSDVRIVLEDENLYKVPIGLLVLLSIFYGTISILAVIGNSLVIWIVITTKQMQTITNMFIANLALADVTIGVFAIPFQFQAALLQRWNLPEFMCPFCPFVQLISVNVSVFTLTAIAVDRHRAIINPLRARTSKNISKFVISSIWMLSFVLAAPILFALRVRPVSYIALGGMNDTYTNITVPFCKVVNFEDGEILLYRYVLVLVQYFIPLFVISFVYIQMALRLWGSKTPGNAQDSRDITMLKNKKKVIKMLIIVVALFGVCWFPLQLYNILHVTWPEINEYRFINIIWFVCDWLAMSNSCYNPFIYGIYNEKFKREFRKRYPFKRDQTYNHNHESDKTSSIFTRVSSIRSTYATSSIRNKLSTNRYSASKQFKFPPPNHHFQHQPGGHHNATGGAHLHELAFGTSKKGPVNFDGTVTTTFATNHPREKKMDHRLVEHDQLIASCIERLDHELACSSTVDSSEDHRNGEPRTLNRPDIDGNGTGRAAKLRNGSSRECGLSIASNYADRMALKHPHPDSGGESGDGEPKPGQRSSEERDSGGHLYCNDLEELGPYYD
Kind of experiment: IP1 accumulation assay, CHO-K1 cells cotransfected with Anopheles LKR and promiscuous Gαq. Type of experiment: cell-based. Particulars: log scale, mean ± SEM, n = 3.
Source text: Considering the similarity of leucokinin-like peptides in different species (Fig. 1), we sought to evaluate cross-activity between leucokinin peptides and their receptors in different species. We selected A. stephensi because it is a pest, and this would also provide an opportunity to determine if Aplysia LKs could be potentially used as insecticides ([67]). […] Thus, we cotransfected promiscuous Gαq with the Anopheles receptor, whereas there was no cotransfection of promiscuous Gαq for ALKR.
as §1
as §2, with “Except for using 0.5 × reagents for the anti-IP1-cryptate and IP1-d2 reagents, all other procedures were performed in accordance with the IP1 detection kit manufacturer’s instructions.” left out

Where [13] appears, read: log scale, IP1 detection kit (Cisbio), mean ± SEM, inactive: greater than highest concentration tested, read-out: log [EC50] on ALKR (converted).
Setting [14] is: IP1 accumulation, average, rounded to two significant figures, read-out: EC50 on ALKR.

Entries after “also recorded” stand apart in the source; their conditions may differ. Read-outs that look alike come from different tables or passages of the source. Where no end group is shown, it is not given here.

What is called EC50 is the concentration needed to bring the measured effect to its halfway point. AAFHSWS-NH2 [ALK1_A1]: the half-maximal effective concentration (EC50) in [1] (setting [13]) was 141 nM.

On to AGFAPWA-NH2 [ALK4], for which the 50% effective concentration (EC50) in [1] (setting [13]) was 19.5 nM.

ALK1 with H4 replaced with A (peptide) returned an EC50 of IP1 accumulation in CHO-K1 cells transfected with ALKR in [2] of 51 nM.

Regarding Aplysia leucokinin-like peptide 1, the EC50 of IP1 accumulation in CHO-K1 cells expressing the ALKR mutant, activated by ALK1 in experiment [3] amounted to 120 nM; in experiment [4], 19000 nM; in experiment [5] it was 78 nM; in experiment [6] it was 370 nM; in [7] it was 56 nM; in [8], 6800 nM. Also, the results for the EC50 of IP1 accumulation in CHO-K1 cells expressing the ALKR mutant, activated by ALK1 in experiment [9], in experiment [10] and in [11] were 35000 nM, 13000 nM and 77 nM, respectively.

For the substance Aplysia leucokinin-like peptide 6, the EC50 of IP1 accumulation in CHO-K1 cells transfected with ALKR in experiment [12] turned out to be 32 nM.

In experiment [12], Aplysia leucokinin-like peptide 7 came in with an EC50 of IP1 accumulation in CHO-K1 cells transfected with ALKR of 92 nM.

Take Aplysia leucokinin-like peptide 8: in experiment [12], the EC50 of IP1 accumulation in CHO-K1 cells transfected with ALKR came to 10 nM.

Aplysia leucokinin-like peptide 9 yielded an EC50 of IP1 accumulation in CHO-K1 cells transfected with ALKR in experiment [12] of 10 nM.

In the case of Aplysia leucokinin-like peptide 11, the EC50 of IP1 accumulation in CHO-K1 cells transfected with ALKR in [12] amounted to 62 nM.

Consider Aplysia leucokinin-like peptide 12, for which, in [12], the EC50 of IP1 accumulation in CHO-K1 cells transfected with ALKR was 330 nM.

Take “DTPRYVSKQKFHSWG-NH2 [Anopheles LK1, reference compound]”: the values for the EC50 (on Anopheles LKR; in experiment [1] (setting [13])) were 3.63 nM and 427 nM, respectively.

For LAAFHAWS-NH2 [ALK12], the EC50 in [1] (setting [13]) was 295 nM.

PAAFHAWS-NH2 [ALK11]: in [1] (setting [13]), the EC50 was 61.7 nM.

For the substance PAAHSWS-NH2 [ALK1_A3], the EC50 in experiment [1] (setting [14]) and in experiment [1] (setting [13]) was above 10000 nM each time. Moreover, the “Activation of ALKR (in words)” value in experiment [1] was “not active”. For the same substance, the “Active (√ active / × not active)” value in [1] (IP1 accumulation) is listed as “×”.

As to PAFASWS-NH2 [ALK1_A4], the EC50 in experiment [1] (setting [13]) was 51.3 nM.

For PAFHAWG-NH2 [ALK10], in [1] (setting [13]), the EC50 is 21.4 nM.

As to PAFHAWS-NH2 [ALK2], the EC50 in experiment [1] (setting [13]) was 21.4 nM.

PAFHSAS-NH2 [ALK1_A6]: the EC50 in experiment [1] (setting [14]) and in experiment [1] (setting [13]) was above 10000 nM in each case. Also, the “Activation of ALKR (in words)” value in experiment [1] is on record as “not active”. In addition, in experiment [1] (IP1 accumulation), the “Active (√ active / × not active)” value is “×”.

Consider PAFHSWA-NH2 [ALK1_A7], for which the EC50 in [1] (setting [13]) is 28.2 nM.

In the case of PAFHSWS-OH [ALK1-OH], the EC50 in experiment [1] (setting [14]) and in experiment [1] (setting [13]) was above 10000 nM throughout. Moreover, the “Activation of ALKR (in words)” value in experiment [1] is reported as “not active; also recorded: not able to activate”.

Consider PAFHSWS-OH [ALK1_nG], for which, in [1] (IP1 accumulation), the “Active (√ active / × not active)” value is reported as “×”.

As for PAFNAWG-NH2 [ALK8], the values for the EC50 (on Anopheles LKR; in experiment [1] (setting [13])) were 40.7 nM and 10.2 nM, respectively.

On to PAFQAWS-NH2 [ALK13], for which, in experiment [1] (setting [13]), the concentration giving a half-maximal response (EC50) is 15.1 nM.

Take PAFSAWN-NH2 [ALK5]: in experiment [1] (setting [13]), the EC50 was 10.5 nM.

As for PAFSAWS-NH2 [ALK3], in experiment [1] (setting [13]), the EC50 is 11.7 nM.

As to PAFSPWS-NH2 [ALK9], the EC50 is 724 nM on Anopheles LKR and 9.77 nM in [1] (setting [13]).

In the case of PRFHAWS-NH2 [ALK7], in [1] (setting [13]), the EC50 was 91.2 nM.

For the substance SEKQPAFHAWS-NH2 [ALK6], the EC50 in experiment [1] (setting [13]) is 31.6 nM.
